Assay results taken from PMC9034232 (RSC Advances, 2021).

What was measured:
[1] = tested on: influenza A/H1N1/WSN/33 virus; assay: Anti-IAV activity assay; format: cell-based; details: 24 h, read-out: IC50 (anti-IAV activity)
in vitro = details: human

| Compound | IC50 [1] [µM] | CC50 (in vitro) [µM] |
| --- | --- | --- |
| Cc1cc(=O)c2c(o1)C[C@H](O)C[C@H]2O [Compound 9, (5R,7R)-5,7-dihydroxy-2-methyl-5,6,7,8-tetrahydro-4H-chromen-4-one] | 16.1 | > 100 |
| Cc1cc(=O)c2c(o1)C[C@@H](O)C[C@H]2O [Compound 11, (5R,7S)-5,7-dihydroxy-2-methyl-5,6,7,8-tetrahydro-4H-chromen-4-one] | 9 | > 100 |
| NC(=O)c1ncn([C@@H]2O[C@H](CO)[C@@H](O)[C@H]2O)n1 [Ribavirin, reference compound] | 21.7 | > 100 |
